Results as given in publication PMC11187126, “Structure and dynamics of the pyroglutamylated RF-amide peptide QRFP receptor GPR103” (Nature Communications, 2024).
Like-named read-outs stand apart in the source and are kept apart here. No end group written: not given here.

Target: T1, GPR103 T102^2.61A (Homo sapiens, UniProt Q96P65, T102A)
T1 construct: we used human full-length QRFPR-encoding plasmids; expressed in transfected cells; host or cells: HEK293 cells, pCAGGS vector
T1 sequence (Q96P65 1-431 T102A): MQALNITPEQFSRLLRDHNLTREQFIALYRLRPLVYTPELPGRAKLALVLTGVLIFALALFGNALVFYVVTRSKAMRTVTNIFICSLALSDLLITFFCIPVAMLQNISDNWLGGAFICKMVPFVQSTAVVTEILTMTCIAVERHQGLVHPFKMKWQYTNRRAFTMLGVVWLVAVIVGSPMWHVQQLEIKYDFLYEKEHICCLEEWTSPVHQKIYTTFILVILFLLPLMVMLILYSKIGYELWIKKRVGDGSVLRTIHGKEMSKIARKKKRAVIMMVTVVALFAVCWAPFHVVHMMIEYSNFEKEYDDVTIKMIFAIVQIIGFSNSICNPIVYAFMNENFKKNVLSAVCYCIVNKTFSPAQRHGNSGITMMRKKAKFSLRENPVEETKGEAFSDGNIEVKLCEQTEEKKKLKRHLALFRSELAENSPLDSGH
Assay: TGFα shedding assay; Exp. level WT (1:1)
Format: cell-based
Procedure: For the TGFα shedding assay and the flow cytometry analysis, we used human full-length QRFPR-encoding plasmids. Specifically, GPR103 was N-terminally modified with an HA signal sequence followed by a FLAG epitope and then a flexible linker ([…]; the FLAG epitope is underlined) and inserted into the pCAGGS vector. Plasmid encoding GPR103 mutants were generated using Quickchange Site-Directed Mutagensis kit (Agilent).
The TGFα shedding assay was performed as described previously with minor modifications. Plasmid transfection was performed in a 6-well plate with a mixture of 500 ng (per well in a 6-well plate) AP-TGFα-encoding plasmid and 200 ng GPR103-encoding plasmid. After 1-day culture, the transfected cells were harvested by trypsinization, pelleted by centrifugation at 190 × g for 5 min, and washed once with 5 mM HEPES (pH 7.4)-containing Hank’s Balanced Salt Solution (HBSS). After centrifugation, the cells were resuspended in 8 mL of the HEPES-containing HBSS. The cell suspension was seeded in a 96-well culture plate (cell plate) at a volume of 90 μL (per well hereafter) and incubated in a 37 °C incubator with 5% CO2 for 30 min. […] After spinning the cell plates at 190 × g for 2 min, 80 μL of conditioned media was transferred to an empty 96-well plate (conditioned media (CM) plate). Then, 80 μL of AP reaction solution (10 mM p-nitrophenylphosphate (p-NPP), 120 mM Tris-HCl (pH 9.5), 40 mM NaCl, and 10 mM MgCl2) was dispensed into the cell plates and the CM plates. Absorbance at 405 nm of the plates was measured using a microplate reader (SpectraMax 340 PC384, Molecular Devices) before and after 1-h incubation at room temperature. Ligand-induced AP-TGFα release was calculated by subtracting spontaneous AP-TGFα release signal from ligand-induced AP-TGFα release signal. The AP-TGFα release signals were fitted to a four-parameter sigmoidal concentration–response curve, using the Prism 10 software (GraphPad Prism). For each replicate experiment, the pEC50 parameter (negative logarithmic values of EC50 values) of the individual GPR103 mutants were normalized to that of the wild-type GPR103 performed in parallel, and resulting ∆pEC50 values were used to denote ligand response activity of the mutants. […]
Exp. le vel: WT (1:5 0)Exp. le vel: WT (1:5 0)Exp. le vel: WT (1:5 0)Exp. le vel: WT (1:2 0)Exp. le vel: WT (1:2 0)Exp. le vel: WT (1:1 0) […]
L1 4N - t e r mA F2 5N - t e r mA I 2 6N - t e r mA Y 2 9N - t e r mA C 9 82 .5 7A T10 22 .6 1A Exp . l eve l: WT (1 :5)Exp . l evel : >WT (1 :1)Exp. le vel: WT (1:2 0)Exp. le vel: WT (1:2 0)Exp. le vel: WT (1:5 0)Exp . l eve l: WT (1 :1) […]
Exp. le vel: WT (1:1 0)Exp. le vel: WT (1:2 0) C 1 1 83 .2 5AExp. le vel: WT (1:5 0)Exp. le vel: WT (1:5 0)Exp. le vel: WT (1:2 0)Exp . l eve l: WT (1 :5) […]
Exp. le vel: WT (1:5 0)Exp. le vel: WT (1:1 0)Exp. le vel: WT (1:5 0) E203ECL2AExp . l evel : >WT (1 :1)Exp. le vel: WT (1:5 0)Exp. le vel: WT (1:5 0) […]
Exp . l eve l: WT (1 :1) F28Exp. le vel: WT (1:5 0) C 2 8 56 .4 7AExp. le vel: WT (1:2 0) WExp. le vel: WT (1:2 0) F28Exp. le vel: WT (1:5 0)Exp . l evel : >WT (1 :1) […]
Exp. le vel: WT (1:5 0)Exp. le vel: WT (1:5 0) C 3 2 77 .4 8AExp . l eve l: WT (1 :5)Exp . l evel : >WT (1 :1)Exp . l evel : >WT (1 :1) […]
Suppl eme nt ary Figure 1 | Mutational analysis of GPR103. […]
mutants. Data are presented as mean values ± SEM, normally n=3-5; dots), each performed in triplicate. b-d Cell-surface expression (b) and QRFP26-in-duced activation of GPR103 (c, d) were analyzed by the flow cytometry and the TGFα shedding assay, respectively. From the concentration–response curves (a), Emax (c) and ΔpEC50 (d) values relative to the wild type were calculated. Colors in the mutant bars indicate an expression level matching to that of titrated wild type. Statistical analyses were performed using the ordinary one-way ANOVA followed by Dunnett tests with the expression-matched […]

TSGPLGNLAEELNGYSRKKGGFSFRF-NH2 [QRFP26]
Emax (Exp. #1): 102.50 % WT
Emax (Exp. #2): 94.07 % WT
Emax (Exp. #3): 109.18 % WT
Emax (mean, read-out: Emax): 102%
EC50 (n = 3): 20.4 nM
Emax (n = 3, read-out: Emax): 105 ± 3.6%
